Measured values reported in patent US8618046B2, “Treatment of atherosclerosis with cholesterol ester transport protein mimotopes” (Affiris AG, priority 2007, dated 2013).
“Also recorded” adds a separate entry of the source.

System: monoclonal antibody “Frida”
Assay: In vitro inhibition (competition) ELISA with mAb Frida on coated original CETP epitope
Format: binding, mouse
Conditions: for inhibition ELISA signal, high / inhibition ELISA signal, low / inhibition ELISA signal, 2 μg peptide / inhibition ELISA signal, 20 μg peptide: 2.5 ng mAb Frida; for inhibition ELISA signal, high / inhibition ELISA signal, low / inhibition ELISA signal, first value column / inhibition ELISA signal, second value column / inhibition ELISA signal, 2 μg peptide / inhibition ELISA signal, 20 μg peptide: detection αIgG1; for inhibition ELISA signal, high: high peptide amount; for inhibition ELISA signal, low: low peptide amount; for inhibition ELISA signal, first value column / inhibition ELISA signal, second value column: FIG. 18b, column without head; for inhibition ELISA signal, 2 μg peptide / inhibition ELISA signal, 20 μg peptide: FIG. 10a, coat 1 μM peptide; for inhibition in in vitro competition ELISA, mAb “Frida” (in words): monoclonal antibodies “Frida” and, where stated, “James”
Procedure: Different amounts of peptides (2 and 20 μg, as indicated in the respective figures) derived from Phage Display were incubated with the monoclonal antibody that was used for the screening procedure. Peptides diminishing subsequent binding of the antibody to the original CETP epitope (C-terminal 16 amino acids of CETP protein) coated on ELISA plates were considered as inhibiting. (Results see i.a. FIGS. 19a to 19c)

[1] = FIG. 18a, coat 1 μM 4073 peptide

C-AAAPAHLLVDAAQAAA (N-terminal Cys; CETP mimotope) [p4437]
inhibition ELISA signal, high (FIG. 18c, coat 1 μM 4073): 1.674 | inhibition ELISA signal, low (FIG. 18c, coat 1 μM 4073): 1.84

C-AAFAAHLLADFLQAAA (N-terminal Cys; CETP mimotope) [p4436]
inhibition ELISA signal, high (FIG. 18c, coat 1 μM 4073): 1.691 | inhibition ELISA signal, low (FIG. 18c, coat 1 μM 4073): 1.632

C-AAFPAHAAADFLQALA (N-terminal Cys; CETP mimotope) [p4435]
inhibition ELISA signal, high (FIG. 18c, coat 1 μM 4073): 1.969 | inhibition ELISA signal, low (FIG. 18c, coat 1 μM 4073): 1.281

C-AAFPAHLLADAAQALA (N-terminal Cys; CETP mimotope) [p4434]
inhibition ELISA signal, high (FIG. 18c, coat 1 μM 4073): 1.461 | inhibition ELISA signal, low (FIG. 18c, coat 1 μM 4073): 1.74

C-DFGFPAHVFIDWLQSLN (N-terminal cysteine; CETP mimotope) [p4818]
inhibition ELISA signal, first value column (coat 1 μM 4073 peptide): 0.332 | inhibition ELISA signal, second value column (coat 1 μM 4073 peptide): 0.091

C-DFGFPAHVFIDWLQSLS (N-terminal cysteine; CETP mimotope) [p4480]
inhibition ELISA signal, high [1]: 0.103 | inhibition ELISA signal, low [1]: 0.521

C-DFGFPAHVLIDWLQSLN (N-terminal cysteine; CETP mimotope) [p4990]
inhibition ELISA signal, first value column (coat 1 μM 4073 peptide): 0.263 | inhibition ELISA signal, second value column (coat 1 μM 4073 peptide): 0.073

C-DFGFPAHVTIDWLQSLN (N-terminal cysteine; CETP mimotope) [p4989]
inhibition ELISA signal, first value column (coat 1 μM 4073 peptide): 0.932 | inhibition ELISA signal, second value column (coat 1 μM 4073 peptide): 0.274

C-DFGFPSHLIIDWLQSLS (N-terminal cysteine; CETP mimotope) [p4642]
inhibition ELISA signal, first value column (coat 1 μM 4073 peptide): 0.171 | inhibition ELISA signal, second value column (coat 1 μM 4073 peptide): 0.082

C-FGFPAHFSIDWLQSLS (N-terminal cysteine; CETP mimotope) [p4475]
inhibition ELISA signal, high [1]: 1.429 | inhibition ELISA signal, low [1]: 2.211

C-FGFPAHVFIDWLQ (N-terminal cysteine; CETP mimotope) [p4631]
inhibition ELISA signal, first value column (coat 1 μM 4073 peptide): 2.111 | inhibition ELISA signal, second value column (coat 1 μM 4073 peptide): 2.147

C-FGFPAHVFIDWLQSLN (N-terminal cysteine; CETP mimotope) [p4474]
inhibition ELISA signal, high [1]: 0.179 | inhibition ELISA signal, low [1]: 1.452

C-FGFPAHVFIDWLQSLS [p4361]
inhibition ELISA signal, 2 μg peptide: 0.82 | inhibition ELISA signal, 20 μg peptide: 0.16

C-FGFPAHVSFDWLQSLS (N-terminal cysteine; CETP mimotope) [p4476]
inhibition ELISA signal, high [1]: 1.417 | inhibition ELISA signal, low [1]: 2.000

C-FGFPAHVSIDWLQSLS (N-terminal cysteine; CETP mimotope) [Fr12/3/84 ext2]
inhibition in in vitro competition ELISA, mAb “Frida” (in words): significant inhibition; also recorded: Strongly inhibiting

C-FGFPAHVYIDWLQ (N-terminal cysteine; CETP mimotope) [p4630]
inhibition ELISA signal, first value column (coat 1 μM 4073 peptide): 2.131 | inhibition ELISA signal, second value column (coat 1 μM 4073 peptide): 2.115

C-FGFPAHVYIDWLQSLS [p4362]
inhibition ELISA signal, 2 μg peptide: 0.75 | inhibition ELISA signal, 20 μg peptide: 0.15

C-FGFPEHLLVDFLQS [reference compound]
inhibition in in vitro competition ELISA, mAb “Frida” (in words): not inhibiting in vitro

C-FGFPEHLLVDFLQSL (N-terminal Cys) [reference compound]
inhibition in in vitro competition ELISA, mAb “Frida” (in words): inhibiting in vitro
